Reference: PMC11071266, “The putative proton-coupled organic cation antiporter is involved in uptake of triptans into human brain capillary endothelial cells” (Fluids and Barriers of the CNS, 2024)
“Also recorded” adds a separate entry of the source.

Tests used:
[1] = Physicochemical properties extracted from databases
From the text: Triptans are a relatively homogeneous group of drug compounds with similar physicochemical properties, including molecular weights < 400 g/mol and a low to moderate lipophilicity (cLogD values ranging from − 2.1–0.18). […] As a consequence, it is unlikely that triptans cross the brain microvascular endothelium through passive diffusion to a clinically relevant extent. Table 1 summarizes structures and physicochemical properties of the triptans, as well as oxycodone and pyrilamine, which are two prototypical H^+/OC antiporter substrates included in this study.

P-gp = P-gp (Homo sapiens, UniProt P08183); experiment: Bidirectional transport across IPEC-J2 MDR1 monolayers; settings: pH 7.4
Experimental: The porcine ileum epithelial cell line IPEC-J2 transfected with human MDR1 [37] was maintained in T175-flasks and cultured in Dulbecco's Modified Eagle Medium/Nutrient Mixture F-12, supplemented with 10% (v/v) FBS (SH3008803, ThermoFisher Scientific, MA, USA), 100 U/mL penicillin and 100 μg/mL streptomycin, 2 mM L-glutamine, and 1 mM sodium pyruvate. The culture medium was supplemented with 2 µg/mL puromycin during maintenance. Culture media was changed every second or third day. Cells were passaged using trypsin–EDTA solution 10x (5–10 min, 5% CO2, 37 °C). For experiments, cells were either seeded into 24-well plates (1·10^5 cells/cm^2) and cultured for 2 days or seeded on Transwell® polyester inserts (3460, 1.12 cm^2, pore size 0.4 µm) (3.57·10^4 cells/cm^2) and cultured for 15–17 days. IPEC-J2 MDR1 cells were used for experiments between passage 2–4.
Bidirectional transport studies were conducted using IPEC-J2 MDR1 cell monolayers cultured on semipermeable Transwell® polyester inserts (Corning Inc., NY, USA, 3460, 1.12 cm^2, pore size 0.4 µm). The cells were washed twice with 37 °C hHBSS. […]
The accumulated amount of drug (Q) was calculated for each time-point using Eq. 3.3 Q=Vs∑n-1nCn-1+CnVt where Vs represents the sample volume, Vt the total volume of the receiver compartment, Cn is the concentration of the sample n.
Steady state flux (Jsteady state) was calculated as the slope of the linear part of the accumulated amount (Q) in the receiver compartment as function of time from Eq. 4.4 Jss=ΔQ/Δt·A where t represents time and A is the area of the permeable support.
The apparent permeability (Papp) was calculated from Eq. 5.5 Papp=Jss/Cdonor where Cdonor represents the initial concentration in the donor compartment.
Efflux ratios (ER) were calculated as the ratio of the apparent permeability in the basolateral to apical direction Papp(B-A) and the permeability in the apical to basolateral direction Papp(A-B) using Eq. 6.6 ER=PappB-A/Papp(A-B)

[2] = C57, mouse, 1 µM
From the text: C57 mice were used to prepare blank plasma and brain matrices throughout all binding studies.

[3] = set-up: method as in PMID 32173558; settings: cited from earlier work
H^+/OC antiporter = experiment: Cellular uptake into hCMEC/D3 cells in absence or presence of pyrilamine or oxycodone; type: cell-based, human; settings: triptan 50 µM, asterisks = P level; for Inhibition by oxycodone (of the compound's uptake): 500 µM oxycodone; for Inhibition by pyrilamine (of the compound's uptake): 500 µM pyrilamine
Experimental: The cells were equilibrated in hHBSS with or without inhibitor for 15 min (37 °C, 90 rpm). The compound of interest was spiked into the hHBSS followed by incubation for a designated time. The timeframe of the initial uptake rate was validated into hCMEC/D3 cells (Fig. 1 and Additional file 1). The experiment was terminated by washing three times with ice-cold HBSS supplemented with 0.0375% (v/v) sodium bicarbonate.
The hCMEC/D3 cells were used for time-dependent uptake studies between passage 3–5 (pyrilamine), 7–9 (oxycodone), 6–8 (almotriptan), and 24–31 (eletriptan).
The hCMEC/D3 cells were used for uptake studies of almotriptan, eletriptan, and sumatriptan in the presence of pyrilamine and oxycodone between passage 21–23.
The cells were permeabilized using 50% (v/v) acetonitrile (HPLC LC–MS grade, VWR International S.A.S, Soeborg, Denmark) in ultrapure water (ELGA, Buckinghamshire, England) for 10 min at room temperature. Thereafter, the cells were scraped off the bottom of the wells and transferred to HPLC vials. Samples from bidirectional transport experiments were transferred directly into HPLC vials. All samples were stored at – 18 °C for later analysis. Calibration curves with standards in the range of 1 or 5–1000 ng/mL were dissolved in 50% (v/v) acetonitrile in ultrapure water (ELGA, Buckinghamshire, England), or in hHBSS(-) for analysis of bidirectional transport samples.
Liquid chromatography tandem mass spectrometry (LC–MS/MS) were performed using electrospray ionization in positive mode on a micromass Quattro micro™ API tandem quadrupole mass spectrometer (Waters, MA, USA) or an Ultivo triple quadrupole mass spectrometer (Agilent Technologies, CA, USA) coupled to Agilent HPLC system 1100 Series or 1260 Series (Agilent Technologies, CA, USA California), respectively. Applied columns were an InfinityLab Poroshell 120 EC-C18 (3.0 × 50 mm; 2.7 micron, Agilent Technologies, CA, USA) or a Kinetex 2.6 μm XB-C18 (100 Å, 100 × 4.6 mm, Phenomenex Inc., CA, USA). An overview of applied HPLC and MS/MS parameters can be found in Additional file 2 and Additional file 3, respectively. The data acquisition software was MassLynx (V4.1, Waters, MA, USA).

P-gp, sequence (P08183 whole entry): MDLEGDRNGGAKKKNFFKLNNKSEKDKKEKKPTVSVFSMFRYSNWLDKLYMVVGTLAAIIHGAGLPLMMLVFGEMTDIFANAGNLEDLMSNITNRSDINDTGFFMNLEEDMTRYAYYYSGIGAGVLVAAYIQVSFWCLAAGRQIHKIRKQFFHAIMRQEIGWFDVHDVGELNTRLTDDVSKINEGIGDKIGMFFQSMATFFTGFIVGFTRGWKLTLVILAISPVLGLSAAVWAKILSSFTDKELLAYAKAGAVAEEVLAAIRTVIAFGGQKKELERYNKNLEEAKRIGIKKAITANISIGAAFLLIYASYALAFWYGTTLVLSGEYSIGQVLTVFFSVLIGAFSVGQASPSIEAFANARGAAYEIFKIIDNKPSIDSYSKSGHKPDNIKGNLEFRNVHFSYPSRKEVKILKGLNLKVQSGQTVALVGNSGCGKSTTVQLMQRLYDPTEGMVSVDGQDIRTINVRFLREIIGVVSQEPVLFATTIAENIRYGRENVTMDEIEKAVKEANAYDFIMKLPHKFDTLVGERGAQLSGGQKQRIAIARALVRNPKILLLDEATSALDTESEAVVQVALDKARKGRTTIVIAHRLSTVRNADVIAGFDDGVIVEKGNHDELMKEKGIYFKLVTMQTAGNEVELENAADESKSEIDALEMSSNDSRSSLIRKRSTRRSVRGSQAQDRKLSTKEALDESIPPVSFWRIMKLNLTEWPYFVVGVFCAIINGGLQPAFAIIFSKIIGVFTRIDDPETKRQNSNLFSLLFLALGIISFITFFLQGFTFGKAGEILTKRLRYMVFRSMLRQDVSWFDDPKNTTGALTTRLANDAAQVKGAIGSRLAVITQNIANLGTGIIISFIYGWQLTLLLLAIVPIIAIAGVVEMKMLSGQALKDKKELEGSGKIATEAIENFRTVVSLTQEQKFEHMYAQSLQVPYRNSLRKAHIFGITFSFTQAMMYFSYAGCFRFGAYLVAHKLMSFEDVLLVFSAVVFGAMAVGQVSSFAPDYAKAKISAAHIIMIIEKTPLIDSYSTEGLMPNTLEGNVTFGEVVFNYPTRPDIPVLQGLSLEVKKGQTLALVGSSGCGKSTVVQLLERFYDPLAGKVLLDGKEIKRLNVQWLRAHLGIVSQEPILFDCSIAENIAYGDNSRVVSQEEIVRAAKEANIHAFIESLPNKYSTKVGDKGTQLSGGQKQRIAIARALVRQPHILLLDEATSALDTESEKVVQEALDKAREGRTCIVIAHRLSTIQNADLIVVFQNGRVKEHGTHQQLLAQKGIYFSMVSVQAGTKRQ

- Overall charge pH 7.4 [1]: Positive
- Papp A→B at 120 min, 50 µM (P-gp): 0.82 ± 0.05 ×10⁻⁶ cm/s
- Papp B→A at 120 min, 50 µM (P-gp): 24 ± 2 ×10⁻⁶ cm/s
- efflux ratio at 120 min, 50 µM (P-gp): 28.9 ± 1.8
- fu,plasma [2]: 40%
- fu,brain ([2]; plasma): 8.3%
Compound: CN1CCC[C@@H]1Cc1c[nH]c2ccc(CCS(=O)(=O)c3ccccc3)cc12 [Eletriptan]
- Clinically relevant human peak plasma concentrations [3]: 94 to 200 ng/mL
- Clinically relevant plasma concentrations ([3]; human): 246 to 523 nM
- Inhibition by oxycodone (of the compound's uptake) (H^+/OC antiporter): yes (*)
- Inhibition by oxycodone (of the compound's uptake) (H^+/OC antiporter; listed as eletriptan): inhibited the uptake of eletriptan in a statistically significant manner
- Inhibition by pyrilamine (of the compound's uptake) (H^+/OC antiporter): yes (****)
- Inhibition by pyrilamine (of the compound's uptake) (H^+/OC antiporter; listed as eletriptan): inhibited the uptake of eletriptan in a statistically significant manner; also recorded: almost be completely inhibited
